Source: article PMC9127750, “Structure-based design of CDC42 effector interaction inhibitors for the treatment of cancer” (Cell reports, 2022)
Several values for one entry are separate records, joined by “and”; a condition that tells them apart may be missing. Identical values can stand only once.

Tested on: WM3248 melanoma cells, 486 antibodies
Test: Reverse phase protein arrays (RPPA)
Type: cell-based, Human
From the text: Pellets were snap frozen in liquid nitrogen and shipped to MD Anderson Cancer Center core RPPA facility for RPPA analysis (Table S5). Three biological replicates for each sample were generated.
Nomenclatures on the RPPA heatmaps: name_of_antibody.species_of_antibody.status_of_antibody. V - antibody validated; C - validation of antibody in progress; Q - antibody nonspecific; E – under evaluation; antibodies raised in M - mouse, G - goat, R - rabbit, or T - rat.

[1] = level 20 normalized to 0, mean of 3
[2] = level 20 normalized to 0, single replicates

CN(C)c1cccc(Nc2cc(-c3ccccc3)nc(C3CCNCC3)n2)c1 [ARN22089, N1,N1-dimethyl-N3-(6-phenyl-2-(piperidin-4-yl)pyrimidin-4-yl)benzene-1,3-diamine]
MEK1_pS217_S221.R.V Norm_10 (level 10 vs 0, replicates): 0.653 and 1.014
MEK2.R.V Norm_10 (level 10 vs 0, replicates): 0.958
MERIT40.R.C Norm_10 (level 10 vs 0, replicates): 0.835 and 0.967 and 1.096
MERIT40_pS29.R.V Norm_10 (level 10 vs 0, replicates): 1.054 and 0.952 and 1.159
METTL3.R.V Norm_10 (level 10 vs 0, replicates): 0.943 and 1.355 and 1.161
MIF.R.C Norm_10 (level 10 vs 0, replicates): 0.886 and 1.129 and 0.994
MIG6.R.V Norm_10 (level 10 vs 0, replicates): 0.854 and 1.033 and 0.924
MITF.R.V Norm_10 (level 10 vs 0, replicates): 1.203 and 1.053
MLH1.M.V Norm_10 (level 10 vs 0, replicates): 0.862 and 0.921 and 1.113
MLKL.R.V Norm_10 (level 10 vs 0, replicates): 0.834 and 0.796
MMP2.R.V Norm_10 (level 10 vs 0, replicates): 0.901 and 0.975 and 0.933
MMP14.R.V Norm_10 (level 10 vs 0, replicates): 1.370 and 1.223 and 1.159
MR1.M.C Norm_10 (level 10 vs 0, replicates): 0.964 and 0.975
MRAP.R.C Norm_10 (level 10 vs 0, replicates): 1.105 and 1.029 and 0.983
MSH2.R.C Norm_10 (level 10 vs 0, replicates): 0.935 and 1.122
MSH6.R.C Norm_10 (level 10 vs 0, replicates): 1.082 and 1.155
MSI2.R.C Norm_10 (level 10 vs 0, replicates): 1.122 and 1.158 and 0.948
MTCO1.M.V Norm_10 (level 10 vs 0, replicates): 0.961 and 1.134 and 1.079
MTSS1.M.C Norm_10 (level 10 vs 0, replicates): 0.883 and 1.065
Mcl.1.R.V Norm_10 (level 10 vs 0, replicates): 0.859 and 0.752 and 0.834
MelanA.R.C Norm_10 (level 10 vs 0, replicates): 0.771 and 0.904 and 1.047
Melanoma.gp100.R.C Norm_10 (level 10 vs 0, replicates): 0.993 and 0.873 and 0.988
Merlin.R.C Norm_10 (level 10 vs 0, replicates): 1.228 and 1.105
Midkine.R.V Norm_10 (level 10 vs 0, replicates): 0.894 and 0.939 and 0.959
Mitofusin.1.R.V Norm_10 (level 10 vs 0, replicates): 0.986 and 0.948 and 0.964
Mitofusin.2.R.V Norm_10 (level 10 vs 0, replicates): 0.858 and 0.863 and 1.224
Mnk1.R.V Norm_10 (level 10 vs 0, replicates): 0.920 and 0.841 and 0.963
mTOR.R.V Norm_10 (level 10 vs 0, replicates): 0.942 and 0.902 and 1.003
mTOR_pS2448.R.C Norm_10 (level 10 vs 0, replicates): 1.029 and 0.921 and 1.128
TSC1.R.C Norm_20 Average [1]: 0.903
TTF1.R.V Norm_20 Average [1]: 1.162
TUFM.R.V Norm_20 Average [1]: 0.835
Tuberin.R.V Norm_20 Average [1]: 1.019
Tuberin_pT1462.R.V Norm_20 Average [1]: 1.096
Twist.M.C Norm_20 Average [1]: 0.916
Tyro3.R.V Norm_20 Average [1]: 1.270
U.Histone.H2B.R.C Norm_20 Average [1]: 2.670
UBQLN4.M.C Norm_20 Average [1]: 0.936
UGT1A.M.V Norm_20 Average [1]: 0.975
ULK1_pS757.R.C Norm_20 Average [1]: 0.888
UVRAG.R.C Norm_20 Average [1]: 1.003
VASP.R.V Norm_20 Average [1]: 0.936
VAV1.R.C Norm_20 Average [1]: 1.004
VEGFR.2.R.V Norm_20 Average [1]: 0.966
VEGFR.2_pY1175.R.C Norm_20 Average [1]: 0.978
VHL.EPPK1.M.C Norm_20 Average [1]: 0.882
VHL.R.C Norm_20 Average [1]: 0.906
Vinculin.M.V Norm_20 Average [1]: 0.932
WIPI1.R.C Norm_20 Average [1]: 1.388
WIPI2.R.C Norm_20 Average [1]: 1.126
WTAP.R.V Norm_20 Average [1]: 1.278
Wee1.R.C Norm_20 Average [1]: 0.913
Wee1_pS642.R.C Norm_20 Average [1]: 0.939
XIAP.R.C Norm_20 Average [1]: 0.959
XPA.M.V Norm_20 Average [1]: 0.905
XPF.R.C Norm_20 Average [1]: 0.890
YAP.R.C Norm_20 Average [1]: 0.956
YAP_pS127.R.V Norm_20 Average [1]: 1.018
YB1_pS102.R.V Norm_20 Average [1]: 0.999
YES1.R.V Norm_20 Average [1]: 0.970
YTHDF2.R.V Norm_20 Average [1]: 1.210
YTHDF3.R.C Norm_20 Average [1]: 1.032
ZAP.70.R.V Norm_20 Average [1]: 0.888
ZEB1.R.V Norm_20 Average [1]: 0.961
TSC1.R.C Norm_20_1 to Norm_20_3 [2]: 1.029 and 0.819 and 0.861
TTF1.R.V Norm_20_1 to Norm_20_3 [2]: 1.129 and 1.026 and 1.331
TUFM.R.V Norm_20_1 to Norm_20_3 [2]: 0.786 and 0.994 and 0.727
Tuberin.R.V Norm_20_1 to Norm_20_3 [2]: 0.859 and 0.737 and 1.461
Tuberin_pT1462.R.V Norm_20_1 to Norm_20_3 [2]: 1.032 and 1.164
Twist.M.C Norm_20_1 to Norm_20_3 [2]: 0.837 and 0.972
Tyro3.R.V Norm_20_1 to Norm_20_3 [2]: 1.252 and 1.345 and 1.211
U.Histone.H2B.R.C Norm_20_1 to Norm_20_3 [2]: 1.699 and 5.734 and 0.577
UBAC1.R.V Norm_20_1 to Norm_20_3 [2]: 1.032 and 1.010 and 1.218
UBQLN4.M.C Norm_20_1 to Norm_20_3 [2]: 0.990 and 0.917 and 0.902
UGT1A.M.V Norm_20_1 to Norm_20_3 [2]: 0.904 and 1.048 and 0.973
ULK1_pS757.R.C Norm_20_1 to Norm_20_3 [2]: 0.939 and 0.770 and 0.955
UQCRC2.M.C Norm_20_1 to Norm_20_3 [2]: 0.954 and 1.047 and 1.204
UVRAG.R.C Norm_20_1 to Norm_20_3 [2]: 1.021 and 1.000 and 0.987
VASP.R.V Norm_20_1 to Norm_20_3 [2]: 0.965 and 0.910 and 0.933
VAV1.R.C Norm_20_1 to Norm_20_3 [2]: 1.081 and 0.961 and 0.970
VEGFR.2.R.V Norm_20_1 to Norm_20_3 [2]: 0.959 and 0.914 and 1.026
VEGFR.2_pY1175.R.C Norm_20_1 to Norm_20_3 [2]: 0.916 and 1.050 and 0.968
